Measurements reported in paper PMC5459853, “Cathepsin S inhibition combines control of systemic and peripheral pathomechanisms of autoimmune tissue injury” (Scientific Reports, 2017).

Key:
[1] = molecular target: Mouse Cat-S (Mus musculus, UniProt O70370); experiment: Enzymatic isoform-selectivity assay, mouse Cat-S; type: biochemical; conditions: read-out: apparent IC50, murine Cat-S
Procedure: (§1) RO5459072 was provided by F. Hoffmann-La Roche, Ltd., Basel, Switzerland. It is a competitive inhibitor of the active site of Cat-S and its nitrile function allows covalent reversible inhibition of Cat-S. The synthesis of RO5459072 has been described in WO 2010121918 and WO 2013068434. Recombinant cathepsins were produced in-house or were purchased from commercial vendors. Initial enzymatic assays to determine isoform-selectivity in vitro were performed as previously described, [23]. […] For this the Cat-S-dependent hydrolysis of the fluorogenic substrate Z-Phe-Arg-AMC (Sigma Aldrich) was followed at various inhibitor concentrations. The active fraction of Cat-S was detemined as 70% with a HPLC assay measuring modification of Cat-S with the covalent inhibitor LHVS. The buffer (100 mM potassium phosphate, 50 mM NaCl, 5 mM EDTA, 5 mM TCEP, pH 6) was thoroughly degassed prior to perfoming measurements to prevent oxidation of the catalytic cystein residue by dissolved oxygen. For the Ki-determination the substrate was employed at 10 µM = KM. All kinetic measurements were performad on a SFM-3000 stopped-flow instrument (Bio-Logic Science Instruments) and data were analyzed with GraphPad Prism v5.

[2] = molecular target: Human Cat-B (Homo sapiens, UniProt P07858); experiment: Enzymatic isoform-selectivity assay, Cat-B; type: biochemical
Procedure: as §1

[3] = Plasma exposure on food admix (HPLC-MS/MS) and spleen p10; type: in vivo, MRL-(Fas)lpr mice
Procedure: (§2) Four-week-old female MRL-(Fas)lpr mice were purchased from Harlan Winkelmann (Borchen, Germany) and kept under pathogen-free conditions in a 12 hour light and dark cycle with free access to food and water. All animal experiments were performed in accordance with the European protection laws of animal welfare, and with approval by the local government authorities Regierung von Oberbayern (reference number: 55.2.1-54-2532.2-11-12). At 11 or 15 weeks of age only mice with proteinuria (Albustix, Bayer AG, Leverkusen, Germany) were randomized into five different groups (n = 10) receiving different medicated diets: Three groups were fed with chow mixed with either 3, 10 or 30 mg/kg/day RO5459072, another group’s chow was mixed with 100 mg/kg/day mycophenolate mofetil (MMF), and one group received a standard diet (vehicle). The dose of MMF was chosen according to several studies reporting strong efficacy on SLE and lupus nephritis in MRL-(Fas)lpr mice[24]–[26]. […] At the age of 19 weeks all mice were sacrificed by cervical dislocation. Blood and urine samples were collected at different time points as indicated. In other experiments 7 week old female MRL-(Fas)lpr mice were randomized into three groups (n = 3) to receive a single intravenous injection of 10 µg sterile recombinant Cat-S and one group receiving vehicle (100 µl sterile PBS). One of the Cat-S groups was pretreated with 30 mg/kg/day RO5459072 starting one week prior to Cat-S injection; another group was pretreated with a total of four daily intra-peritoneal injections of the PAR-2 inhibitor GB83 (10 mg/kg).
Plasma samples were collected from mice during the feeding cycle on weeks 2, 4, 6 and 8 on a variable schedule of individuals after initiation of feeding with the drug-food admix on week 1. The levels in food were calculated to achieve doses of 3, 10 and 30 mg/kg/day. EDTA-treated plasma samples (29 per dose level) were frozen and subsequently analysed for the parent drug by HPLC-MS/MS. A column-trapping method (Phenonenex Luna C18 and Thermo Hypersil Gold C8 HPLC columns eluted with formic acid/water/acetonitrile mixtures on a Waters Acquity HPLC system) was used to separate the drug which was quantified using a Sciex API4000 MS/MS. The analytical range was 10–10,000 ng/ml and a stable label internal standard was used. […] All experiments were performed according to German animal protection laws and had been approved by the local government authorities.

[4] = test system: MRL-(Fas)lpr mice; experiment: Experimental SLE and lupus nephritis, treatment week 11 to 19; type: in vivo
Procedure: as §2
Kidney tissue samples were collected from all mice and fixed overnight in 4% buffered formalin. Subsequently the fixed tissue samples were embedded in paraffin and cut into 4 µm thick serial sections. Kidney paraffin sections were stained with periodic acid-Schiff (PAS) reaction using standardized protocols as described. Scoring of lupus nephritis activity and chronicity indices was performed according to human lupus nephritis, [43]. Methenamine silver staining was performed on paraffin embedded kidney sections and semiquantitatively scored form 0–3 by a blinded observer. For immunostaining the following primary antibodies were used: anti-mouse CD3 (Abcam, Cambridge, UK), complement C3c (Biobyt Ltd, Cambridge, UK), CD31 (Dianova GmbH, Hamburg, Germany), WT1 (Santa Cruz Biotechnology, Dallas, Texas) and nephrin (Acris Antibodies, San Diego, CA). The immunostaining for C3c and CD31 were analyzed using the ImageJ software by measuring positively stained area and dividing it by the total area of the glomerulus and reported as percentage of +ve area. Sections stained for WT1/nephrin and CD3 were evaluated by counting positive cells per glomerulus. All the morphometric analysis were carried out in a blinded fashion.
Urinary albumin/creatinine ratios were determined using the Mouse Albumin ELISA Quantitation set (Bethyl Laboratories, Montgomery, TX) and the Creatinine FS kit (DiaSys Diagnostic Systems, Holzheim, Germany)[44]. BUN levels were determined in plasma samples using a Urea FS kit (DiaSys Diagnostic Systems). Mouse IgM, IgG and its isotypes IgG1, IgG2a and IgG2b plasma levels were measured using ELISA Sets (Bethyl Laboratories) at a plasma dilution of 1:1,000 to 1:100,000. Double-stranded DNA IgG and IgM antibodies were quantified as described. Briefly, 96 well Nunc-Immuno plates (Thermo Fisher Scientific, Roskilde, Denmark) were coated with poly-L-lysine (1:1 diluted with PBS) and incubated for two hours. After washing the plates, the plates were coated with 1 µg/ml mouse tail dsDNA sparing the wells for standards, which were coated with anti-mIgG and anti-mIgM (Bethyl Laboratories). The standard curve was fixed from purified mIgG and mIgM (Bethyl Laboratories). The plasma samples were diluted 1:1,000 and added into the wells. After 1 h the assay was developed using HRP-labelled goat anti-mIgG and anti-mIgM and TMB substrate (BD Bioscience, San Diego, CA). […]

## Cn1cc(-c2ccc(S(=O)(=O)[C@@H]3C[C@@H](C(=O)NC4(C#N)CC4)N(C(=O)C4(C(F)(F)F)CC4)C3)c(C(F)(F)F)c2)cn1 [RO5459072]
[1]
  IC50: 0.3 nM
[2]
  IC50: > 1000 nM
  IC50, Human Cat-B: No sub-micro molar inhibition
[3]; 3 mg/kg/day food admix
  mean plasma concentration (SD): 172 ± 58.4 ng/mL
[3]; 10 mg/kg/day food admix
  mean plasma concentration (SD): 648 ± 142 ng/mL
[3]; 30 mg/kg/day food admix
  mean plasma concentration (SD): 2660 ± 575 ng/mL
[3]; food admix, MRL-(Fas)lpr mice
  p10 fragment accumulation in the spleen: robust p10 fragment accumulation
[3]; mouse, plasma, oral, food admix 262 mg/kg of food, exposure dose 30 mg/kg, over 8 weeks, female MRL-(Fas)lpr mice, read-out: stable plasma levels
  concentration at 8 weeks: 400 to 600 ng/mL
[4]; flow cytometry of kidneys
  intrarenal mononuclear phagocyte and T cell subsets: suppressed
[4]; highest dose of RO5459072 versus MMF
  reduction of urinary albumin/creatinine (A/C) ratio more than MMF: 2 log scales
[4]; highest dose, week 19
  plasma levels of antinuclear antibodies: suppressed
[4]; medicated diets, throughout the study period
  food intake or body weight between groups: no significant difference
[4]; real time PCR, kidney
  intrarenal mRNA expression of IL-6, MCP-1/CCL2, RANTES/CCL5 and CXCL2: suppressed
  intrarenal mRNA expression of TNF-α, IFN-γ and SDF-1/CXCL12: remained unaffected
[4]; week 11-19
  blood urea nitrogen (BUN) over time: prevented the progressive increase
  podocyte number and proteinuria: protective effect
[4]; week 11-19, ELISA
  dsDNA IgM: did not affect
  total levels of plasma IgM: did not affect
[4]; week 11-19, RO5459072 3, 10, 30 mg/kg/day, MMF 100 mg/kg/day
  spleen plasma cells and plasma IgG levels and IgG isotypes: dose-dependently suppressed
[4]; week 11-19, RO5459072 highest dose, MMF 100 mg/kg/day, ELISA
  plasma dsDNA IgG levels (IgG autoantibodies): suppress plasma dsDNA IgG levels below baseline
[4]; week 11-19, flow cytometry
  spleen CD11c+/CD11b+/MHCII+ antigen-presenting cells: suppressed
  spleen CD11c+/F4/80+/MHCII+ cells: suppressed
[4]; week 19
  complement C3 deposits, diffuse proliferative glomerular lesions and glomerulosclerosis: less
  integrity of the glomerular vasculature (CD31 staining): improved
[4]; week 19, PAS sections
  activity and chronicity scores of nephritis: dose-dependently reduced
